Measured values: publication PMC5681660, “Reduced hepatitis B and D viral entry using clinically applied drugs as novel inhibitors of the bile acid transporter NTCP” (Scientific Reports, 2017)
“And” between values parts separate entries of the source, which are not always exact repeats. Equal values may be shown once. “Also recorded” adds a separate entry of the source.

Tests used:
[1] = sulfasalazine 1 gram; ref 5 (supplement); cited from earlier work
[2] = target: T1, human ASBT (Homo sapiens, UniProt Q12908); assay: Taurocholate uptake in MDCK-hASBT cells; assay type: cell-based; conditions: compared with NTCP
T1 construct: expressed in transfected cells; gift of Paul Dawson; induced with sodium butyrate
T1 sequence (Q12908 1-348): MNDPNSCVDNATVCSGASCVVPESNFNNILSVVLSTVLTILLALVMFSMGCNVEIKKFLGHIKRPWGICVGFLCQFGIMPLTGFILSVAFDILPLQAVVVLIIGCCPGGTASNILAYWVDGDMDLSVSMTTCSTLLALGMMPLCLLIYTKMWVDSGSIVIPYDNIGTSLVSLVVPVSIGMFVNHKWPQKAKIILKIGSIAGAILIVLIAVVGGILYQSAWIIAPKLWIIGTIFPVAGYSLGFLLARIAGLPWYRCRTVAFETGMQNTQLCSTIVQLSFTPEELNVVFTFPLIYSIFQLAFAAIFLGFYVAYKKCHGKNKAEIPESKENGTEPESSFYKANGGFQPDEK
Experimental: U2OS and MDCK cells were grown in Dulbecco’s modified Eagle’s medium (DMEM, Sigma-Aldrich), supplemented with 10% FCS (Gibco), 1% L-glutamine (Lonza), and 1% penicillin/streptomycin (Lonza). […] Transient transfection of U2OS cells with mouse NTCP (mNTCP) was done with PEI reagent (Brunschwig, Basel, Switzerland). Shortly, U2OS cells were seeded one day prior to transfection in 24-well plates. On the day of transfection, 0.5 µg DNA was mixed with 100 µl unsupplemented DMEM and 3 µg/µl PEI. After 10–15 minute incubation at RT, 20 µl of the transfection mix was added to each 24-well. Transfected cells were used in further experiments 48–72 hours later. Cell lines were passaged twice a week at a confluence of 80%, and incubated in a humidified atmosphere of 37 °C + 5% CO2.
For MDCK or MDCK-hASBT cells 70.000 cells/well were plated in 24-well plates, followed by 24 hours 10 mM sodium butyrate (Sigma-Aldrich) stimulation the next day. Cells were used in the inhibition studies 24 hours (U2OS cell lines) or 48 hours (MDCK cell lines) later. Inhibition studies with mNTCP transiently transfected cells were conducted 48–72 hours after transfection.
Medium was aspirated from the wells and cells were washed once with 250 µL uptake buffer. Subsequently, cells were pre-incubated with drug in 150 µL uptake buffer for 10 minutes at 37 °C. Taurocholate uptake was initiated by addition of 100 µL uptake buffer containing taurocholate (final concentration 10 µM TC spiked with tritium-labeled TC) and cells were incubated for 2 minutes at 37 °C. Subsequently, cells were washed 4 times with ice-cold PBS and lysed with 0.05% SDS in water. Radioactivity was measured by liquid scintillation counting.

[3] = system: HDV; assay: HDV infection of HepaRG cells (HDAg immunofluorescence); assay type: cell-based, hepatitis delta virus; conditions: HDAg positive cells, day 5; concentration-dependent
[4] = target: T2, human NTCP (Homo sapiens, UniProt Q14973); assay: Myrcludex B-FITC binding by confocal microscopy in U2OS-HA-hNTCP cells; design: HA; expressed in transfected cells
T2 sequence (Q14973 1-349): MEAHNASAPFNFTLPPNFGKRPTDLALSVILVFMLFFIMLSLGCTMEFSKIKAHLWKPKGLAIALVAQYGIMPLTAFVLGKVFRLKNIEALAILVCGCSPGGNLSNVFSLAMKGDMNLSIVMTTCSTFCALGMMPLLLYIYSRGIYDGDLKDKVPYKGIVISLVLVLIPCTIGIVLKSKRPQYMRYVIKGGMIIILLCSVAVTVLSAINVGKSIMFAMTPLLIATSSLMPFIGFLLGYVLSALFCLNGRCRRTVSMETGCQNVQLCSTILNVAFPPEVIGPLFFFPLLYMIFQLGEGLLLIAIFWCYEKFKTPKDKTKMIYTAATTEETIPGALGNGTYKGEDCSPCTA
Experimental: After 24 hours, medium was aspirated and cells were washed once with 300 µl Leibovitz’s L-15 Medium (Invitrogen). A 30 minute incubation period followed in which all cells were incubated with 0.2 µM Myrcludex B-FITC with or without drug (1, 10, 100 µM) and Hoechst (1/1000) in 300 µL Leibovitz’s L-15 Medium. Cells were washed twice with Leibovitz’s L-15 Medium and subsequently 400 µL Leibovitz’s L-15 Medium was added. Live cell fluorescent imaging was performed using a Leica SP8X-SMD confocal microscope with fully enclosed incubation at 37 °C. A 63x oil objective was used and images were captured while the cells were consecutively excited at 490 nm (FITC) 350 nm (Hoechst). ImageJ software (National Insititutes of Health, Bethesda, MD) was employed for data analysis.

O=C(O)c1cc(/N=N/c2ccc(S(=O)(=O)Nc3ccccn3)cc2)ccc1O [Sulfasalazine]
Expected serum concentration [1]: 6 µg/ml and ~15 µM | inhibition of ASBT-mediated taurocholate uptake [2]: largely ineffective | inhibition of ASBT-mediated taurocholate uptake ([2]; listed as sulfasalazine): Complete absence of ASBT inhibition | HDV infection in HepaRG cells (in words) [3]: reduced HBV/HDV infection; also recorded: reduce | Myrcludex B-FITC fluorescence / binding to U2OS-HA-hNTCP cells (in words) ([4]; co-administration with increasing amounts of drug): reduced | ≥50% loss of Myrcludex B binding to hNTCP (concentration) ([4]; confocal microscopy, 0.2 µM Myrcludex B-FITC, drug 1, 10, 100 µM, concentration at which binding inhibited minimally 50%): ≥1 µM
